These compounds were tested against recombinant human MGAT2 (Homo sapiens (Human), UniProt Q3SYC2) (assay: Measurement of human MGAT2 inhibitory activity). Conditions: concentration exhibiting 50% enzyme inhibition; recombinant human MGAT2, 2-Oleoylglycerol/Oleoyl-CoA.
Type: biochemical
Experimental: A full-length human MGAT2 gene to which a Flag-tag had been added at the N-terminal was inserted into pFastBac (from Invitrogen). A recombinant baculovirus was produced in accordance with the protocol for a Bac-to-Bac baculovirus expression system (produced by Invitrogen), and Sf-9 cells were infected therewith. The cells were collected and sonicated, and then the membrane fraction was collected through centrifugation. Western blotting analysis with an anti-Flag antibody was performed for the membrane fraction to confirm expression, and the membrane fraction was used as a recombinant human MGAT2 enzyme solution.
Solutions of the compounds of the present invention in DMSO were each aliquoted into 0.2-μL portions in a 384-well polystyrene microplate produced by Corning Incorporated, and 5 μL of an enzyme solution prepared with an assay buffer (100 mmol/L phosphate buffer (pH 7.4) containing 2 mmol/L DTT) and 5 μL of a substrate solution (100 mmol/L phosphate buffer (pH 7.4), 30 μmol/L 2-Oleoylglycerol, 10 μmol/L Oleoyl-CoA) were added thereto, and the resultant was stirred and centrifuged, and incubated in a moist chamber at room temperature for 1 hour. After enzymatic reaction, 50 μL of a quenching solution (containing 0.2 μmol/L Diolein-d5, 0.4% formic acid, and 50% isopropanol) containing Internal Standard (IS) was added to terminate the reaction, and the resultant was sealed in a plate produced by Shimadzu GLC Ltd., and then stirred and centrifuged, and measurement was performed by using an electrospray ionization method with a RapidFire360 and Agilent 6550 Q-TOF mass spectrometer. Diolein as a reaction product (P) of 2-Oleoylglycerol as the substrate and an ammonium adduct ion of the IS were detected, and the peak intensity ratio, P/IS, was calculated from the peak heights to evaluate the inhibitory activity. Inhibitory activities with/without addition of enzyme were defined as Control (+)/Control (−), respectively, and the respective % inhibitions were defined as 0% inhibition and 100% inhibition. The inhibitory activity was calculated from formula below with TIBCO Spotfire (produced by TIBCO Software Inc.)
Inhibitory activity (%)=[1−{Sample−Control (−)}/{Control (+)−Control (−)}]*100 where Sample indicates a peak intensity ratio: P/IS, when the compound of the present invention was added.

Sequence of recombinant human MGAT2 (Q3SYC2 whole entry): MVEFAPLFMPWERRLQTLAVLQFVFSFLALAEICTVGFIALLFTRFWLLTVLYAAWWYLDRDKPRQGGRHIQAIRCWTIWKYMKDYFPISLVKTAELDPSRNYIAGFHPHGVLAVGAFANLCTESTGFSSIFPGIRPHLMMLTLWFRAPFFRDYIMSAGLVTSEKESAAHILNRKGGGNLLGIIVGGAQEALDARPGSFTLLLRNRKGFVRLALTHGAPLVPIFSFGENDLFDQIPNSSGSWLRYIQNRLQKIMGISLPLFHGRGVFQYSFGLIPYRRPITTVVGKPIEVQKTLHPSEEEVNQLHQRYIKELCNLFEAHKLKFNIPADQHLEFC

Question: Which IC50 does the source give for `CS(=O)(=O)CC(=O)Nc1c(-c2ccc(C(F)(F)F)cc2)nn2c1C(=O)N[C@@]1(CCc3cc(OCC(F)(F)F)ccc31)C2` [Compound I-25] here?
Answer: 1.33 nM

Question: `CS(=O)(=O)CC(=O)Nc1c(-c2ccc(C#N)c(F)c2)nn2c1C(=O)N[C@@]1(CCc3cc(OCC(F)(F)F)ccc31)C2` [Compound I-51] was tested. Which IC50 did it give?
Answer: 1.32 nM

Question: `CS(=O)(=O)CC(=O)Nc1c(-c2ccc(S(C)(=O)=O)cc2)nn2c1C(=O)N[C@]1(CCc3cc(OCC(F)(F)F)ccc31)C2` [Compound I-96] was tested. Which IC50 did it give?
Answer: 208 nM

Question: With `CS(=N)(=O)CC(=O)Nc1c(-c2ccc(C(F)(F)F)cc2)nn2c1C(=O)N[C@@]1(CCc3cc(OCC(F)(F)F)ccc31)C2` (stereo partly shown) [Compound I-112] as the compound, how does the IC50 read?
Answer: 3.96 nM

Question: Which IC50 does the source give for `CCS(=O)(=O)CC(=O)Nc1c(-c2ccc(C)cn2)nn2c1C(=O)N[C@@]1(CCc3cc(F)cc(F)c31)C2` [Compound I-122] here?
Answer: 21.4 nM

Question: `CCCCCc1nn2c(c1NC(=O)CS(C)(=O)=O)C(=O)N[C@]1(CCOc3cc(OCC(F)(F)F)ccc31)C2` [Compound I-114] was tested. Which IC50 did it give?
Answer: 3.1 nM

Question: `CS(=O)(=O)CC(=O)Nc1c(-c2ccc(C#N)c(F)c2)nn2c1C(=O)N[C@]1(CCc3cc(OCC(F)(F)F)ccc31)C2` [Compound I-99] was tested. Which IC50 did it give?
Answer: 1.28 nM

Question: With `CS(=O)(=O)CC(=O)Nc1c(-c2ccccn2)nn2c1C(=O)N[C@]1(CCc3cc(OCC(F)(F)F)ccc31)C2` [Compound I-18] as the compound, how does the IC50 read?
Answer: 3.6 nM

Question: Which IC50 does the source give for `CS(=N)(=O)CC(=O)Nc1c(-c2ccc(Cl)c(F)c2)nn2c1C(=O)N[C@@]1(CCc3cc(OCC(F)(F)F)ccc31)C2` (stereo partly shown) [Compound I-73] here?
Answer: 2.82 nM

Question: `Cc1ccc(-c2nn3c(c2NC(=O)CS(C)(=O)=O)C(=O)N[C@]2(CCc4cc(OCC(F)(F)F)ccc42)C3)cc1F` [Compound I-90] was tested. Which IC50 did it give?
Answer: 1.1 nM

Question: For `Cc1c(F)cc(-c2nn3c(c2NC(=O)CS(C)(=O)=O)C(=O)N[C@]2(CCc4cc(OCC(F)(F)F)ccc42)C3)cc1F` [Compound I-101], which IC50 is on record?
Answer: 1.36 nM

Question: For `Cc1cc(F)ccc1-c1nn2c(c1NC(=O)CS(C)(=O)=O)C(=O)N[C@@]1(CCc3cc(OCC(F)(F)F)ccc31)C2` [Compound I-35], which IC50 is on record?
Answer: 32.2 nM

Question: Which IC50 does the source give for `Cc1ccc(-c2nn3c(c2NC(=O)CC(F)(F)F)C(=O)N[C@@]2(CCc4cc(OCC(F)(F)F)ccc42)C3)nc1` [Compound I-43] here?
Answer: 368 nM

Question: For `Cc1cc(-c2nn3c(c2NC(=O)CS(C)(=O)=O)C(=O)N[C@@]2(CCc4cc(OCC(F)(F)F)ccc42)C3)ccc1F` [Compound I-32], which IC50 is on record?
Answer: 1.19 nM

Question: For `CCOc1ccc2c(c1)CC[C@@]21Cn2nc(-c3ccc(F)c(F)c3)c(NC(=O)CS(C)(=O)=O)c2C(=O)N1` [Compound I-69], which IC50 is on record?
Answer: 2.78 nM

Question: Which IC50 does the source give for `CS(=O)(=O)CC(=O)Nc1c(-c2ccc(F)cc2)nn2c1C(=O)N[C@@]1(CCc3cc(OCC(F)(F)F)ccc31)C2` [Compound I-23] here?
Answer: 1.2 nM

Question: For `CS(=O)(=O)CC(=O)Nc1c(-c2ccc(C(F)F)cc2)nn2c1C(=O)N[C@]1(CCc3cc(OCC(F)(F)F)ccc31)C2` [Compound I-80], which IC50 is on record?
Answer: 1.28 nM

Question: With `CS(=O)(=O)CC(=O)Nc1c(-c2ccc(C3CC3)cn2)nn2c1C(=O)N[C@@]1(CCc3cc(OCC(F)(F)F)ccc31)C2` [Compound I-57] as the compound, how does the IC50 read?
Answer: 1.14 nM

Question: With `Cc1ccc(-c2nn3c(c2NC(=O)CC(F)(F)F)C(=O)N[C@]2(CCc4cc(OCC(F)(F)F)ccc42)C3)nc1` [Compound I-39] as the compound, how does the IC50 read?
Answer: 248 nM

Question: Which IC50 does the source give for `CS(=O)(=O)CC(=O)Nc1c(-c2ccc(C3CC3)cn2)nn2c1C(=O)N[C@]1(CCc3cc(OCC(F)(F)F)ccc31)C2` [Compound I-56] here?
Answer: 1.03 nM

Question: For `Cc1ccc(-c2nn3c(c2NC(=O)C2CS(=O)(=O)C2)C(=O)N[C@@]2(CCc4cc(OCC(F)(F)F)ccc42)C3)nc1` [Compound I-44], which IC50 is on record?
Answer: 13.4 nM

Question: With `COc1ccc(-c2nn3c(c2NC(=O)CS(C)(=O)=O)C(=O)N[C@]2(CCc4cc(OCC(F)(F)F)ccc42)C3)cc1F` [Compound I-100] as the compound, how does the IC50 read?
Answer: 4.59 nM

Question: For `CS(=O)(=O)CC(=O)Nc1c(-c2ccc(C#N)cn2)nn2c1C(=O)NC1(CN(c3ccc(C(F)(F)F)cc3)C1)C2` [Compound I-7], which IC50 is on record?
Answer: 3.04 nM

Question: How did the IC50 turn out when `Cc1ccc(-c2nn3c(c2NC(=O)CS(C)(=O)=O)C(=O)NC2(CCc4cc(OCc5ccccc5)ccc42)C3)nc1` (stereo not shown) [Compound I-55] was run?
Answer: 1 nM

Question: Which IC50 does the source give for `CNS(=O)(=O)CC(=O)Nc1c(-c2ccc(C#N)cn2)nn2c1C(=O)N[C@]1(CCc3cc(OCC(F)(F)F)ccc31)C2` [Compound I-11] here?
Answer: 1.08 nM

Question: Which IC50 does the source give for `CS(=O)(=O)CC(=O)Nc1c(-c2ccc(F)c(F)c2)nn2c1C(=O)N[C@]1(CCOc3cc(F)cc(F)c31)C2` [Compound I-152] here?
Answer: 8.24 nM

Question: How did the IC50 turn out when `CCOc1ccc2c(c1)CC[C@]21Cn2nc(-c3ccc(F)c(F)c3)c(NC(=O)CS(C)(=O)=O)c2C(=O)N1` [Compound I-117] was run?
Answer: 4.83 nM

Question: How did the IC50 turn out when `CC(C)(O)c1ccc(-c2nn3c(c2NC(=O)CS(C)(=O)=O)C(=O)N[C@]2(CCc4cc(OCC(F)(F)F)ccc42)C3)cc1` [Compound I-93] was run?
Answer: 9.47 nM

Question: Which IC50 does the source give for `C[S@](=N)(=O)CC(=O)Nc1c(-c2cc(F)c(F)c(F)c2)nn2c1C(=O)N[C@@]1(CCc3cc(OCC(F)(F)F)ccc31)C2` (single isomer, unassigned) [Compound I-105] here?
Answer: 1.71 nM

Question: With `Cc1ccc(-c2nn3c(c2NC(=O)c2ccno2)C(=O)N[C@@]2(CCc4cc(OCC(F)(F)F)ccc42)C3)nc1` [Compound I-42] as the compound, how does the IC50 read?
Answer: 11.3 nM

Question: With `N#Cc1ccc(-c2nn3c(c2NC(=O)c2ccno2)C(=O)N[C@]2(CCc4cc(OCC(F)(F)F)ccc42)C3)nc1` [Compound I-8] as the compound, how does the IC50 read?
Answer: 1.02 nM

Question: `Cc1ccc(-c2nn3c(c2NC(=O)c2ccno2)C(=O)N[C@]2(CCc4cc(OCC(F)(F)F)ccc42)C3)nc1` [Compound I-38] was tested. Which IC50 did it give?
Answer: 5.31 nM

Question: With `CS(=O)(=O)CC(=O)Nc1c(-c2ccc(C#N)cc2)nn2c1C(=O)N[C@@]1(CCc3cc(OCC(F)(F)F)ccc31)C2` [Compound I-31] as the compound, how does the IC50 read?
Answer: 2.23 nM

Question: How did the IC50 turn out when `CS(=O)(=O)CC(=O)Nc1c(-c2ccc(C#N)cn2)nn2c1C(=O)N[C@]1(CCc3cc(OCC(F)(F)F)ccc31)C2` [Compound I-4] was run?
Answer: 1.93 nM

Question: With `CS(=O)(=O)CC(=O)Nc1c(-c2ccc(Cl)c(F)c2)nn2c1C(=O)N[C@@]1(CCc3cc(F)cc(F)c31)C2` [Compound I-138] as the compound, how does the IC50 read?
Answer: 3.55 nM

Question: How did the IC50 turn out when `CS(=O)(=O)CC(=O)Nc1c(-c2ccc(Cl)cn2)nn2c1C(=O)N[C@]1(CCc3cc(OCC(F)(F)F)ccc31)C2` [Compound I-59] was run?
Answer: 0.48 nM

Question: With `CS(=O)(=O)CC(=O)Nc1c(-c2ccc(F)c(F)c2)nn2c1C(=O)N[C@]1(CCc3cc(F)cc(F)c31)C2` [Compound I-148] as the compound, how does the IC50 read?
Answer: 10.6 nM

Question: Which IC50 does the source give for `CS(=O)(=O)CC(=O)Nc1c(-c2ccc(C(F)(F)F)cc2)nn2c1C(=O)N[C@]1(CCc3cc(OCC(F)(F)F)ccc31)C2` [Compound I-81] here?
Answer: 1.54 nM

Question: For `CCOc1ccc2c(c1)OCC[C@]21Cn2nc(-c3ccc(F)cc3)c(NC(=O)CS(C)(=O)=O)c2C(=O)N1` [Compound I-132], which IC50 is on record?
Answer: 3.1 nM

Question: How did the IC50 turn out when `C[S@@](=N)(=O)CC(=O)Nc1c(-c2ccc(F)c(Cl)c2)nn2c1C(=O)N[C@@]1(CCc3cc(OCC(F)(F)F)ccc31)C2` (single isomer, unassigned) [Compound I-72] was run?
Answer: 6.43 nM

Question: `CS(=O)(=O)CC(=O)Nc1c(-c2ccc(F)cc2)nn2c1C(=O)N[C@@]1(CCOc3cc(F)cc(F)c31)C2` [Compound I-125] was tested. Which IC50 did it give?
Answer: 2.8 nM

Question: `CS(=O)(=O)CC(=O)Nc1c(-c2ccccc2)nn2c1C(=O)N[C@]1(CCc3cc(OCC(F)(F)F)ccc31)C2` [Compound I-2] was tested. Which IC50 did it give?
Answer: 6.6 nM

Same assay, conditions: concentration exhibiting 50% enzyme inhibition; recombinant human MGAT2, 2-Oleoylglycerol/Oleoyl-CoA; listed as 1-62

Question: For `CS(=O)(=O)CC(=O)Nc1c(CCCC(F)(F)F)nn2c1C(=O)NC1(CCc3cc(OCC(F)(F)F)ccc31)C2` (single isomer, unassigned) [Compound I-62], which IC50 is on record?
Answer: 1.39 nM

Reference: patent US12227509B2, “Dihydropyrazolopyrazinone derivative having MGAT2 inhibitory activity” (Shionogi & Co., Ltd., priority 2019, dated 2025)
